This passage reports Drug uptake results from ChEMBL document CHEMBL4706749, “Development of Fluorescence Imaging Probes for Labeling COX-1 in Live Ovarian Cancer Cells” (ACS Med Chem Lett, 2021).

The structures appear in SMILES notation.

The nature of data set [1]: Drug uptake in human COX1-negative HCA7 cells at 10 uM incubated for 30 mins by Hoechst-33258 staining based confocal laser scanning microscopic analysis. Type of data set: ADME, cell-based. The settings on record: hca7, 0.5 h.
A short description of data set [2]: Drug uptake in human OVCAR-3 cells by measuring perinuclear fluorescence staining at 10 uM incubated for 30 mins by Hoechst-33258 staining based confocal laser scanning microscopic analysis. Type of data set: ADME, cell-based. The settings on record: ovcar-3, 0.5 h.

In the case of `O=C(O)c1ccc(-n2nc(-c3ccco3)cc2-n2cc(CNc3ccc([N+](=O)[O-])c4nonc34)nn2)cc1`, the Drug uptake entry is reported as “Not Active” in data set [1] and “Active” in data set [2].
